Tests used:
barnyardgrass = experiment: Test D flooded paddy test; format: in vivo, Echinochloa crus-galli; details: 21 days, scale 0 to 100
Text: (§1) Three plastic pots (ca. 16-cm diameter) per rate were partially filled with sterilized Tama silt loam soil comprising a 35:50:15 ratio of sand, silt and clay and 2.6% organic matter. Separate plantings for each of the three pots were as follows. Seeds from the U.S. of ducksalad (Heteranthera limosa (Sw.) Willd.), smallflower umbrella sedge (Cyperus difformis L.) and purple redstem (Ammannia coccinea Rottb.), were planted into one 16-cm pot for each rate. Seeds from the U.S. of rice flatsedge (Cyperus iria L.), bearded sprangletop (Leptochloa fascicularis (Lam.) Gray), one stand of 9 or 10 water seeded rice seedlings (Oryza sativa L. cv. ‘Japonica—M202’), and one stand of 6 transplanted rice seedlings (Oryza sativa L. cv. ‘Japonica—M202’) were planted into one 16-cm pot for each rate. Seeds from the U.S. of barnyardgrass (Echinochloa crus-galli (L.) Beauv.), late watergrass (Echinochloa oryzicola Vasinger), early watergrass (Echinochloa oryzoides (Ard.) Fritsch) and junglerice (Echinochloa colona (L.) Link) were planted into one 16-cm pot for each rate. Plantings were sequential so that crop and weed species were at the 2.0 to 2.5-leaf stage at time of treatment.
(§2) Potted plants were grown in a greenhouse with day/night temperature settings of 29.5/26.7° C., and supplemental balanced lighting was provided to maintain a 16-hour photoperiod. Test pots were maintained in the greenhouse until test completion.
(§3) At time of treatment, test pots were flooded to 3 cm above the soil surface, treated by application of test compounds directly to the paddy water, and then maintained at that water depth for the duration of the test. Effects of treatments on rice and weeds were visually evaluated by comparison to untreated controls after 21 days. Plant response ratings are reported on a 0 to 100 scale; where 0 is no effect and 100 is complete control. A dash (-) response means no test result.

rice flatsedge = experiment: Test D flooded paddy test; format: in vivo, Cyperus iria; details: 21 days, scale 0 to 100
Text: as §1, §2, §3

early watergrass = experiment: Test D flooded paddy test; format: in vivo, Echinochloa oryzoides; details: 21 days, scale 0 to 100
Text: as §1, §2, §3

junglerice = experiment: Test D flooded paddy test; format: in vivo, Echinochloa colona; details: 21 days, scale 0 to 100
Text: as §1, §2, §3

bearded sprangletop = experiment: Test D flooded paddy test; format: in vivo, Leptochloa fascicularis; details: 21 days, scale 0 to 100
Text: as §1, §2, §3

[1] = test system: smallflower umbrella sedge; experiment: Test D flooded paddy test; format: in vivo, Cyperus difformis; details: 21 days, scale 0 to 100
Text: as §1, §2, §3

ducksalad = experiment: Test D flooded paddy test; format: in vivo, Heteranthera limosa; details: 21 days, scale 0 to 100
Text: as §1, §2, §3

kochia = experiment: Test E pre-/postemergence herbicide test; format: in vivo, Kochia scoparia; details: Preemergence
Text: (§4) Seeds of plant species selected from bipinnate beggarticks (Bidens bipinnata L.), hairy beggarticks (Bidens radiata Thuill.), bermudagrass (Cynodon dactylon (L.) Pers.), Surinam grass (Urochloa decumbens (Staph) R. D. Webster, previously named Brachiaria decumbens Stapf), large crabgrass (Digitaria sanguinalis (L.) Scop.), green foxtail (Setaria viridis (L.) P. Beauv.), goosegrass (Eleusine indica (L.) Gaertn.), johnsongrass (Sorghum halepense (L.) Pers.), kochia (Kochia scoparia (L.) Schrad.), pitted morningglory (Ipomoea lacunosa L.), purple nutsedge (Cyperus rotundus L.), common ragweed (Ambrosia elatior L.), mustard (Brassica nigra (L.) W. D. J. Koch), guineagrass (Panicum maximum Jacq.), dallisgrass (Paspalum dilatatum Poir.), barnyardgrass (Echinochloa crus-galli (L). P. Beauv.), southern sandbur (Cenchrus echinatus L.), common sowthistle (Sonchus oleraceous L.), prickly sida (Sida spinosa L.), Italian ryegrass (Lolium multiflorum Lam.), common purslane (Portulaca oleracea L.), broadleaf signalgrass (Brachiaria platyphylla (Griseb.) Nash), common groundsel (Senecio vulgaris L.), common chickweed (Stellaria media (L.) Vill/Cyr.), tropical spiderwort (Commelina benghalensis L.), annual bluegrass (Poa annua L.), downy bromegrass (Bromus tectorum L.), itchgrass (Rottboellia cochinchinensis (L.) L.f.), quackgrass (Elytrigia repens (L.) Nevski), Canada horseweed (Erigeron Canadensis L.), field bindweed (Convolvulus arvensis L.), spotted spurge (Euphorbia maculata L.), common mallow (Malva sylvestris (=s silvestris) L.), and Russian thistle (Salsola kali L. ssp. Ruthenica (Iljin) Soo) were planted and treated preemergence with test chemicals formulated in a non-phytotoxic solvent mixture which included a surfactant.
(§5) At the same time, plants selected from these weed species were treated with postemergence applications of some of the test chemicals formulated in the same manner. Plants ranged in height from 2 to 18 cm (1- to 4-leaf stage) for postemergence treatments. Treated plants and controls were maintained in a greenhouse for 12 to 14 days, after which time all species were compared to controls and visually evaluated. Plant response ratings, summarized in Table E, are based on a scale of 0 to 100 where 0 is no effect and 100 is complete control. A dash (-) response means no test result.

purple redstem = experiment: Test D flooded paddy test; format: in vivo, Ammannia coccinea; details: 21 days, scale 0 to 100
Text: as §1, §2, §3

late watergrass = experiment: Test D flooded paddy test; format: in vivo, Echinochloa oryzicola; details: 21 days, scale 0 to 100
Text: as §1, §2, §3

bipinnate beggarticks = experiment: Test E pre-/postemergence herbicide test; format: in vivo, Bidens bipinnata; details: Preemergence
Text: as §4, §5

[2] = 250 g ai/ha, scale 0 (no effect) to 100 (complete control)
[3] = 500 g ai/ha, scale 0 (no effect) to 100 (complete control)

SMILES: CCNC(=O)c1ccnc(NC(=O)c2cc(C(C)(C)C)nn2CC)c1 [Compound 152]
- Plant response rating, Barnyardgrass (barnyardgrass; 8 g ai/ha): 0
- Plant response rating, Barnyardgrass (barnyardgrass; 16 g ai/ha): 0
- Plant response rating, Barnyardgrass (barnyardgrass; 32 g ai/ha): 0
- Plant response rating, Barnyardgrass (barnyardgrass; 64 g ai/ha): 10
- Plant response rating, Barnyardgrass (barnyardgrass; 125 g ai/ha): 35
- Plant response rating, Flatsedge, Rice (rice flatsedge; 8 g ai/ha): 75
- Plant response rating, Flatsedge, Rice (rice flatsedge; 16 g ai/ha): 75
- Plant response rating, Flatsedge, Rice (rice flatsedge; 32 g ai/ha): 75
- Plant response rating, Flatsedge, Rice (rice flatsedge; 64 g ai/ha): 90
- Plant response rating, Flatsedge, Rice (rice flatsedge; 125 g ai/ha): 95
- Plant response rating, Watergrass, Early (early watergrass; 8 g ai/ha): 0
- Plant response rating, Watergrass, Early (early watergrass; 16 g ai/ha): 0
- Plant response rating, Watergrass, Early (early watergrass; 32 g ai/ha): 0
- Plant response rating, Watergrass, Early (early watergrass; 64 g ai/ha): 0
- Plant response rating, Watergrass, Early (early watergrass; 125 g ai/ha): 45
- Plant response rating, Junglerice (junglerice; 8 g ai/ha): 0
- Plant response rating, Junglerice (junglerice; 16 g ai/ha): 0
- Plant response rating, Junglerice (junglerice; 32 g ai/ha): 0
- Plant response rating, Junglerice (junglerice; 64 g ai/ha): 0
- Plant response rating, Junglerice (junglerice; 125 g ai/ha): 30
- Plant response rating, Sprangletop, Bearded (bearded sprangletop; 8 g ai/ha): 30
- Plant response rating, Sprangletop, Bearded (bearded sprangletop; 16 g ai/ha): 30
- Plant response rating, Sprangletop, Bearded (bearded sprangletop; 32 g ai/ha): 30
- Plant response rating, Sprangletop, Bearded (bearded sprangletop; 64 g ai/ha): 35
- Plant response rating, Sprangletop, Bearded (bearded sprangletop; 125 g ai/ha): 40
- Plant response rating, Sedge, Umbrella ([1]; 8 g ai/ha): 0
- Plant response rating, Sedge, Umbrella ([1]; 16 g ai/ha): 70
- Plant response rating, Sedge, Umbrella ([1]; 32 g ai/ha): 75
- Plant response rating, Sedge, Umbrella ([1]; 64 g ai/ha): 85
- Plant response rating, Sedge, Umbrella ([1]; 125 g ai/ha): 95
- Plant response rating, Ducksalad (ducksalad; 8 g ai/ha): 0
- Plant response rating, Ducksalad (ducksalad; 16 g ai/ha): 70
- Plant response rating, Ducksalad (ducksalad; 32 g ai/ha): 75
- Plant response rating, Ducksalad (ducksalad; 64 g ai/ha): 80
- Plant response rating, Ducksalad (ducksalad; 125 g ai/ha): 90
- Plant response rating, Kochia (kochia; 62 g ai/ha, scale 0 to 100): 0
- Plant response rating, Kochia (kochia; 125 g ai/ha, scale 0 to 100): 85
- Plant response rating, Kochia (kochia; [2]): 85
- Plant response rating, Kochia (kochia; [3]): 95
- Plant response rating, Redstem (purple redstem; 8 g ai/ha): 0
- Plant response rating, Redstem (purple redstem; 16 g ai/ha): 0
- Plant response rating, Redstem (purple redstem; 32 g ai/ha): 60
- Plant response rating, Redstem (purple redstem; 64 g ai/ha): 85
- Plant response rating, Redstem (purple redstem; 125 g ai/ha): 90
- Plant response rating, Watergrass, Late (late watergrass; 8 g ai/ha): 0
- Plant response rating, Watergrass, Late (late watergrass; 16 g ai/ha): 0
- Plant response rating, Watergrass, Late (late watergrass; 32 g ai/ha): 15
- Plant response rating, Watergrass, Late (late watergrass; 64 g ai/ha): 20
- Plant response rating, Watergrass, Late (late watergrass; 125 g ai/ha): 40

SMILES: Cc1nn(C(C)(C)C)nc1C(=O)Nc1cccc(C(=O)N(C)C)c1 [Compound 391]
- Plant response rating, Beggarticks, Bip. (bipinnate beggarticks; 62 g ai/ha, scale 0 to 100): 40
- Plant response rating, Beggarticks, Bip. (bipinnate beggarticks; 125 g ai/ha, scale 0 to 100): 80
- Plant response rating, Beggarticks, Bip. (bipinnate beggarticks; [2]): 100
- Plant response rating, Beggarticks, Bip. (bipinnate beggarticks; [3]): 100

Reference: patent US20060069132A1, “Azolecarboxamide herbicides” (priority 2004, published 2006)
